From patent US6444870B1, “Methods for assessing the role of calcineurin immunosuppression and neurotoxicity” (President and Fellows of Harvard College, priority 1995, dated 2002)

Columns and labels:
calcineurin = assay: Calcineurin phosphatase assay in T cell extracts (okadaic acid resistant, EGTA-sensitive phosphatase activity); assay type: biochemical, mouse
Description: Spleen and lymph nodes were harvested from wild type and mutant mice and were dispersed into single cell suspension. Red blood cells were removed by lysis. The final concentrations were adjusted to 1.5-2.0×10^8 cells suspended in 2 ml of PBS containing 5% fetal calf serum and 4 mM EDTA. The cell suspensions were enriched for T cells using Mouse T Cell Enrichment Column (R&D Systems). T cells were then lysed with lysis buffer containing 50 mM Tris-HCl, pH 7.5, 15% glycerol, 0.1 mM EGTA, 1 mM EDTA, 0.5 mM DTT, […] PMSF, 50 μg/ml soybean trypsin inhibitor, 5 μg/ml aprotinin, 5 μg/ml leupeptin. Aliquots of 8×10^6 cells per 50 μl of lysis buffer were frozen until further analysis.
The phosphatase assay is a modified version of a previously described procedure (Manalan and Klee, 1983; Liu, 1991). The reaction mixture (total volume 60 μl) contained 50 mM MES (pH6.0), 100 mM NaCl, 6 mM Mg(OAc)2, […], […] (Fraction V), […] okadaic acid (Calbiochem), […] [^33P] RII peptide (600 cpm/pmole), and T cell or brain extract. […] of the terminated reaction mixture was applied per well, washed and counted in a Top-Count scintillation counter (Packard Instrument Co.). […]
Residual calcineurin activity, (i.e., okadaic acid resistant and EGTA-sensitive phosphatase activity) was measured in the same CNAα^−/− T cell extracts (Martin and Wiederrecht, in press). […]

T cells = assay: Mitogenic stimulation of T cells: proliferation and IL-2 and IL-4 production, drug sensitivity; assay type: cell-based, mouse
From the text: We tested the responses of the wild type and mutant T cells to mitogenic stimulation with phorbol 12-myristate 13 acetate (PMA) plus ionomycin, concanavalin A (ConA), and anti-CD3ε antibodies. All three mitogens induced the CNAα^−/− T cells to proliferate as rapidly as the wild type T-cells. Further, stimulated mutant and wild type T cells produced the same amounts of IL-2 and IL-4 and expressed normal level of IL-2 receptor on the surface. Thus, CNAα^−/− T cells appeared to be functional when stimulated by mitogens in vitro.
We tested the drug sensitivity of the CNAα^−/− T cells. […] CNA^−/− T cells were even more sensitive to these drugs than normal T cells, with a IC50 of 2-7 fold lower than that of the wild type T cells.

FK506
inhibition of (residual) calcineurin phosphatase activity (calcineurin; CNAα−/− mutant T cell extracts): 90-95% | inhibition of calcineurin phosphatase activity (calcineurin; wild type T cell extracts): 90-95% | proliferation and lymphokine production of CNAα−/− T cells, inhibitability (T cells; CNAα−/− T cells): fully inhibitable | inhibition of T cells as measured by proliferation and by IL-2 and IL-4 production (T cells; CNAα−/− and wild type T cells stimulated with PMA plus ionomycin, ConA, or αCD3ε antibody): inhibited
